Laboratory results reported in ChEMBL document CHEMBL1201862, “PubChem BioAssay data set” (2004).
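Where inhibition never reached the appropriate level, the endpoint shown equals the highest concentration tested. Otherwise, values were interpolated linearly from a five-concentration, 48-hour dose response in 96-well plates. GI50 marks 50% less growth.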 Calls of active or inactive are those of the source. Cut-off read from the data, not from the text of the source: active = GI50 up to about 1.1 µM and inactive = higher.

Columns and labels:
Test in all cases: NCI anticancer screen, dose series, 48 h
[1] = tested on: 786-0
[2] = tested on: A498
[3] = tested on: A549
[4] = tested on: ACHN
[5] = tested on: BT-549
[6] = tested on: CAKI-1
[7] = tested on: CCRF-CEM
[8] = tested on: COLO 205
[9] = tested on: EKVX
[10] = tested on: HCC 2998
[11] = tested on: HCT-116
[12] = tested on: HCT-15
[13] = tested on: HL-60
[14] = tested on: HOP-62
[15] = tested on: HOP-92
[16] = tested on: HT-29
[17] = tested on: Hs-578T
[18] = tested on: IGROV-1
[19] = tested on: K562
[20] = tested on: KM12
[21] = tested on: LOX IMVI
[22] = tested on: M14
[23] = tested on: MCF7
[24] = tested on: MDA-MB-231
[25] = tested on: MDA-MB-435
[26] = tested on: MDA-N
[27] = tested on: MOLT-4
[28] = tested on: Malme-3M
[29] = tested on: NCI-H226
[30] = tested on: NCI-H23
[31] = tested on: NCI-H460
[32] = tested on: NCI-H522
[33] = tested on: NCI/ADR-RES
[34] = tested on: OVCAR-3
[35] = tested on: OVCAR-4
[36] = tested on: OVCAR-5
[37] = tested on: OVCAR-8
[38] = tested on: PC-3
[39] = tested on: RPMI-8226
[40] = tested on: RXF 393
[41] = tested on: SF-295
[42] = tested on: SF-539
[43] = tested on: SK-MEL-2
[44] = tested on: SK-MEL-5
[45] = tested on: SK-OV-3
[46] = tested on: SN12C
[47] = tested on: SNB-19
[48] = tested on: SNB-75
[49] = tested on: SR
[50] = tested on: SW-620
[51] = tested on: T47D
[52] = tested on: TK-10
[53] = tested on: U-251
[54] = tested on: UACC-257
[55] = tested on: UACC-62
[56] = tested on: DU-145
[57] = tested on: SF-268
[58] = tested on: SK-MEL-28
[59] = tested on: UO-31

COC(=O)/C=C(\S/C=C(/c1ccccc1)N1CCn2c(C(=O)c3ccccc3)c(C(=O)OC)c(C(=O)OC)c21)C(=O)OC
GI50 [1]: 1.66 µM (inactive)
GI50 [2]: > 10 µM (inactive)
GI50 [3]: > 10 µM (inactive)
GI50 [4]: 3.34 µM (inactive)
GI50 [5]: 3.83 µM (inactive)
GI50 [6]: 4.04 µM (inactive)
GI50 [7]: 0.733 µM (active)
GI50 [8]: 1.99 µM (inactive)
GI50 [9]: > 10 µM (inactive)
GI50 [10]: > 10 µM (inactive)
GI50 [11]: 2.34 µM (inactive)
GI50 [12]: 2.6 µM
GI50 [13]: 0.531 µM (active)
GI50 [14]: 2.69 µM (inactive)
GI50 [15]: 1.23 µM (inactive)
GI50 [16]: 2.77 µM (inactive)
GI50 [17]: > 10 µM (inactive)
GI50 [18]: > 10 µM (inactive)
GI50 [19]: 3.53 µM (inactive)
GI50 [20]: > 10 µM (inactive)
GI50 [21]: 1.47 µM (inactive)
GI50 [22]: 2.4 µM (inactive)
GI50 [23]: 1.42 µM (inactive)
GI50 [24]: 2.69 µM (inactive)
GI50 [25]: 3.97 µM (inactive)
GI50 [26]: > 10 µM (inactive)
GI50 [27]: 1.79 µM (inactive)
GI50 [28]: 2.2 µM (inactive)
GI50 [29]: > 10 µM (inactive)
GI50 [30]: 3.3 µM (inactive)
GI50 [31]: > 10 µM (inactive)
GI50 [32]: 0.434 µM (active)
GI50 [33]: 3.52 µM (inactive)
GI50 [34]: 1.51 µM (inactive)
GI50 [35]: 2.81 µM (inactive)
GI50 [36]: 9.95 µM (inactive)
GI50 [37]: 1.73 µM (inactive)
GI50 [38]: 6.25 µM (inactive)
GI50 [39]: 2.43 µM (inactive)
GI50 [40]: 2.67 µM (inactive)
GI50 [41]: > 10 µM (inactive)
GI50 [42]: 2.29 µM (inactive)
GI50 [43]: > 10 µM (inactive)
GI50 [44]: > 10 µM (inactive)
GI50 [45]: > 10 µM (inactive)
GI50 [46]: 5.05 µM (inactive)
GI50 [47]: > 10 µM (inactive)
GI50 [48]: > 10 µM (inactive)
GI50 [49]: 2.61 µM (inactive)
GI50 [50]: 0.565 µM (active)
GI50 [51]: 2.92 µM (inactive)
GI50 [52]: 2.63 µM (inactive)
GI50 [53]: 3.93 µM (inactive)
GI50 [54]: 3.07 µM (inactive)
GI50 [55]: > 10 µM (inactive)

Cc1ccsc1/C=N/Nc1ccccn1
GI50 [1]: 68.5 µM (inactive)
GI50 [2]: 55 µM (inactive)
GI50 [3]: 7.4 µM (inactive)
GI50 [4]: 74.6 µM (inactive)
GI50 [5]: > 100 µM (inactive)
GI50 [6]: > 100 µM (inactive)
GI50 [7]: 40.5 µM (inactive)
GI50 [8]: 71.1 µM (inactive)
GI50 [56]: 55.6 µM (inactive)
GI50 [9]: 15.2 µM (inactive)
GI50 [10]: 99.5 µM (inactive)
GI50 [11]: 43.8 µM (inactive)
GI50 [12]: 60.1 µM
GI50 [14]: > 100 µM (inactive)
GI50 [15]: 49.3 µM (inactive)
GI50 [16]: 32.8 µM (inactive)
GI50 [17]: > 100 µM (inactive)
GI50 [18]: 16.9 µM (inactive)
GI50 [19]: 43.1 µM (inactive)
GI50 [20]: 35.6 µM (inactive)
GI50 [21]: 37.2 µM (inactive)
GI50 [22]: 54 µM (inactive)
GI50 [23]: 1.71 µM (inactive)
GI50 [24]: 50 µM (inactive)
GI50 [25]: 50.6 µM (inactive)
GI50 [26]: 50.6 µM (inactive)
GI50 [27]: 32.8 µM (inactive)
GI50 [28]: 34.8 µM (inactive)
GI50 [29]: > 100 µM (inactive)
GI50 [30]: 70.6 µM (inactive)
GI50 [33]: 45.3 µM (inactive)
GI50 [34]: 47.5 µM (inactive)
GI50 [35]: 76.2 µM (inactive)
GI50 [36]: > 100 µM (inactive)
GI50 [37]: 66.1 µM (inactive)
GI50 [38]: 39.5 µM (inactive)
GI50 [39]: 19.3 µM (inactive)
GI50 [40]: > 100 µM (inactive)
GI50 [57]: > 100 µM (inactive)
GI50 [41]: > 100 µM (inactive)
GI50 [58]: 98.6 µM (inactive)
GI50 [43]: 34.3 µM (inactive)
GI50 [44]: 25.9 µM (inactive)
GI50 [45]: > 100 µM (inactive)
GI50 [46]: > 100 µM (inactive)
GI50 [47]: > 100 µM (inactive)
GI50 [48]: 50.2 µM (inactive)
GI50 [50]: 74.3 µM (inactive)
GI50 [51]: 60.7 µM (inactive)
GI50 [52]: 57.3 µM (inactive)
GI50 [53]: 76.6 µM (inactive)
GI50 [54]: 54.2 µM (inactive)
GI50 [55]: 74 µM (inactive)
GI50 [59]: 71.3 µM (inactive)
